The target in series [1] is Acetylcholinesterase (Electrophorus electricus, UniProt O42275). Put plainly: Inhibition of electric eel AChE using acetylthiocholine iodide as substrate preincubated for 15 mins followed by substrate addition and measured for 5 mins by Ellman's method. For orientation: In Ellman's method for cholinesterases, released thiocholine reacts with DTNB.
For series [2], the system named is Human immunodeficiency virus 1. The series can be described thus: Antiviral activity against HIV1 BaL infected in human peripheral blood lymphocytes assessed as reduction in p24 production incubated for 5 days by ELISA. Format: functional, organism-based. Particulars: Human immunodeficiency virus 1, BaL, PBL, 120 h. On the technique in general: In an ELISA, binding on a coated surface is turned into a signal by an enzyme label.

Series [3] is described as follows: Binding affinity to iron assessed as pFe3+.
A short description of series [4]: Octanol/water partition coefficient, log P of the compound shaken for 45 mins and measured after 15 mins. Particulars: time 60 min. The format is physicochemical.
The subject of series [5] is Rattus norvegicus. Put plainly: Iron scavenging activity in 59Fe-ferritin-loaded Wistar rat assessed as iron mobilization efficacy at 450 umol/kg, po dosed 1 hr after 59Fe-ferritin injection and measured 24 hrs after 59Fe-ferritin injection by gamma counting method relative to control. The format is functional. Particulars: dose 450 µmol/kg.
A short description of series [6]: Electrochemical behavior of the compound assessed as redox potential. The format is physicochemical.
A further series concerns Pseudomonas aeruginosa. Put plainly: Antibacterial activity against Pseudomonas aeruginosa incubated for 2 hrs followed by sterilized TSB addition and measured after 24 hrs by visual inspection. The format is functional. Particulars: time 26 hrs.
In series [7] the test system is Staphylococcus aureus. Put plainly: Protection against Staphylococcus aureus Smith infected in sc dosed mouse administered 1 hr post infection and measured at 7 days post infection by Litchfield-Wilcoxon method. The format is functional. Particulars: 168 h, time 7 day.
Series [8] addresses T1, Amyloid-beta precursor protein (Homo sapiens, UniProt P05067). The series can be described thus: Inhibition of self-induced amyloid beta (1 to 42) (unknown origin) aggregation by ThT fluorescence assay relative to control. Particulars: concentration not given here.
Series [9] can be described thus: Antioxidant activity assessed as ABTS radical scavenging activity by trolox-equivalent antioxidant capacity assay. Format: functional.
The target of series [10] is T1, Amyloid-beta precursor protein. The series can be described thus: Inhibition of self-induced amyloid beta (1 to 42) (unknown origin) aggregation by ThT fluorescence assay.
The nature of series [11]: Binding affinity to iron assessed as pFe3+ at pH 7.4 by spectrophotometric method.
A short description of series [12]: Binding affinity to Fe3+ assessed as pFe by UV-Vis spectrophotometric method.
Another series relates to Providencia stuartii. The series can be described thus: Antibacterial activity against Providencia stuartii incubated for 24 hrs by visual inspection. The format is functional.
The subject of series [13] is Staphylococcus aureus. Put plainly: Antibacterial activity against Staphylococcus aureus incubated for 2 hrs followed by sterilized water addition and measured after 24 hrs by visual inspection. The format is functional. Particulars: time 26 hrs.
Series [14] can be described thus: Binding affinity to Fe3+ assessed as binding constant.
Series [15] deals with Acetylcholinesterase (Torpedo californica, UniProt P04058). The series can be described thus: Inhibition of Torpedo californica AChE using acetylthiocholine iodide as substrate preincubated for 15 mins followed by substrate addition and measured for 5 mins. Set-up: species or system Tetronarce californica.
Acetylcholinesterase (Torpedo californica, UniProt P04058), sequence (P04058 whole entry): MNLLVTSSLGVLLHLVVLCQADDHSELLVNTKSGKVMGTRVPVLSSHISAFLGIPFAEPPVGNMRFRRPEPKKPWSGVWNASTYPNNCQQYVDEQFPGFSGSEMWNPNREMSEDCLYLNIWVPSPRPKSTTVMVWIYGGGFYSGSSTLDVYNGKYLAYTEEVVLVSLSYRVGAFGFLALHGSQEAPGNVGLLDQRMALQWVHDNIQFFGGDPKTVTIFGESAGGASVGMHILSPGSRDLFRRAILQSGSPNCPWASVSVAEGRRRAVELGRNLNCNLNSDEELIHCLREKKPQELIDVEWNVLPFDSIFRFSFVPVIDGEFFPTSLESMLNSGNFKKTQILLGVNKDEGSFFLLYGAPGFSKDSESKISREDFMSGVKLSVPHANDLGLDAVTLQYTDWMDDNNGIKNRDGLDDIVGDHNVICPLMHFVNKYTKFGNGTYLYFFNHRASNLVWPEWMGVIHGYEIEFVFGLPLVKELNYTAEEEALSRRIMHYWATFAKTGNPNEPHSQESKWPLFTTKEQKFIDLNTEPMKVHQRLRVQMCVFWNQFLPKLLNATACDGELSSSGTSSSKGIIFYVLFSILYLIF
The nature of series [16]: Antioxidant activity assessed as DPPH radical scavenging activity incubated for 30 mins by absorbance method. The format is functional. Background: Loss of DPPH colour is used to gauge radical scavenging.
Series [17] concerns the target T1, Amyloid-beta precursor protein. Put plainly: Inhibition of human amyloid beta (1 to 42) aggregation incubated for 24 hrs by ThT fluorescence assay. Particulars: concentration not given here.
A short description of series [18]: Binding affinity to iron assessed as pFe3+ at pH 7.45.
Series [19] concerns Rattus norvegicus. The series can be described thus: Iron scavenging activity in 59Fe-ferritin-loaded rat assessed as iron mobilization efficacy at 450 umol/kg, po dosed 1 hr after 59Fe-ferritin injection and measured 24 hrs after 59Fe-ferritin injection by gamma counting method relative to control. The format is functional. Particulars: dose 450 µmol/kg; time 23 hrs.
The nature of series [20]: Binding affinity to iron assessed as pFe3+ by spectrophotometric method.
The subject of series [21] is Plasmodium falciparum. Put plainly: Antiplasmodial activity against chloroquine-sensitive Plasmodium falciparum 3D7 incubated for 48 hrs by parasite lactate dehydrogenase assay. Format: functional, organism-based. Particulars: 3D7, 48 h.
Series [22] has as its system Plasmodium falciparum. Put plainly: Antiplasmodial activity against chloroquine-sensitive Plasmodium falciparum D10 incubated for 48 hrs by parasite lactate dehydrogenase assay. Format: functional, organism-based. Particulars: D10, 48 h.
Series [23] relates to Plasmodium falciparum. Put plainly: Antiplasmodial activity against chloroquine-resistant Plasmodium falciparum Dd2 incubated for 48 hrs by parasite lactate dehydrogenase assay. Format: functional, organism-based. Particulars: Dd2, 48 h.
The test system of series [24] is Plasmodium falciparum. Put plainly: Antiplasmodial activity against chloroquine-resistant Plasmodium falciparum K1 incubated for 48 hrs by parasite lactate dehydrogenase assay. The format is functional, organism-based. Particulars: K1, 48 h.

Each structure is given as a SMILES string. In brackets after ≈: the same amount, converted by molar mass.

T1 sequence (P05067 whole entry): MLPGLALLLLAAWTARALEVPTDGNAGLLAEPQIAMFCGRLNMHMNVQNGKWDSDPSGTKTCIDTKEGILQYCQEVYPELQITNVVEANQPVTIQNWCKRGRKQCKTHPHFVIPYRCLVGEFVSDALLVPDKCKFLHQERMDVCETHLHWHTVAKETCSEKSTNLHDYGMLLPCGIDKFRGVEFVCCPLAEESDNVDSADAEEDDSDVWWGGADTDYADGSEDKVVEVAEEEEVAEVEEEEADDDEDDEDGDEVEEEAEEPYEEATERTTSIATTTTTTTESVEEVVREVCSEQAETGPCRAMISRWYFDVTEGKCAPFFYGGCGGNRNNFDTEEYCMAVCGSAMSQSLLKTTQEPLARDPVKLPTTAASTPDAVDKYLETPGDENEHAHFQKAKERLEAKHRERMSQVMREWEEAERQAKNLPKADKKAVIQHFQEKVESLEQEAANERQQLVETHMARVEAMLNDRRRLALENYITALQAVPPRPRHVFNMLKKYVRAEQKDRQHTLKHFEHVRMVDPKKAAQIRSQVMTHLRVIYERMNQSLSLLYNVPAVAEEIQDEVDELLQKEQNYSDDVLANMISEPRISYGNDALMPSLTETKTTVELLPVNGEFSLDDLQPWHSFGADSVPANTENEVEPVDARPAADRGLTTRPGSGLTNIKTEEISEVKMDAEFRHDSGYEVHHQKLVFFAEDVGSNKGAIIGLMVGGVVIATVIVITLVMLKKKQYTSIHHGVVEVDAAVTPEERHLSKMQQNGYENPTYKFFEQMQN
Acetylcholinesterase (Electrophorus electricus, UniProt O42275), sequence (O42275 whole entry): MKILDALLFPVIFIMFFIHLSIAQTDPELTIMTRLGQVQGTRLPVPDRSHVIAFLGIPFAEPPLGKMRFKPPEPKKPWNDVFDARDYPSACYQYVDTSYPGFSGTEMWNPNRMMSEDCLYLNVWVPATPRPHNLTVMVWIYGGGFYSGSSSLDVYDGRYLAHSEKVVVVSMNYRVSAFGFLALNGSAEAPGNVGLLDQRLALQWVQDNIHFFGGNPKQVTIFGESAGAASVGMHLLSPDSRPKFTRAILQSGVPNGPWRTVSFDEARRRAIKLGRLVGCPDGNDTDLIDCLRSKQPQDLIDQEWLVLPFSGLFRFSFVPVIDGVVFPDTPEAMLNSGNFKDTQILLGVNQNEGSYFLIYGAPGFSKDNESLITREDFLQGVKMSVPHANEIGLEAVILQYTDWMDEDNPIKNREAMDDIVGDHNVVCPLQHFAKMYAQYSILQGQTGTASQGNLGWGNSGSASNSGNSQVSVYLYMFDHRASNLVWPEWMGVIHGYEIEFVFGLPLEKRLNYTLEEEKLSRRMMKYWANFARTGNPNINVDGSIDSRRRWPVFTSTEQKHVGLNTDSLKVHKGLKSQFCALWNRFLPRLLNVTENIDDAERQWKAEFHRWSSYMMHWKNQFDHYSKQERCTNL

Regarding `Cc1c(O)c(=O)ccn1CC(=O)NCC(O)CNc1c2c(nc3cc(Cl)ccc13)CCCC2` (stereo not drawn), at Acetylcholinesterase [1], 0.64 µM corresponded to half-maximal inhibition (IC50).

As for `Cc1c(O)c(=O)ccn1C` [DEFERIPRONE], the IC50 (commonly the concentration at which inhibition is half-maximal) in series [2] came out at 102 µM. For the same compound, the Activity was 20.4 in [3] and -620 mV in series [6]. The logP – broadly, the decadic logarithm of the partition coefficient of the neutral form, usually between octanol and water – at 1 h in series [4] is 0.17. In addition, in the series on Rattus norvegicus [5], the Efficacy is recorded as 13.4%.

Regarding `CCCC(=O)NC(CCCNC(=O)c1c(O)c(=O)ccn1CC)(CCCNC(=O)c1c(O)c(=O)ccn1CC)CCCNC(=O)c1c(O)c(=O)ccn1CC`, it took 32 µg/mL (≈ 41.7 µM) to inhibit growth in the series on Pseudomonas aeruginosa (MIC).

On to `Cc1c(O)c(=O)ccn1CC(=O)NCCCCNc1c2c(nc3cc(Cl)ccc13)CCCC2`, for which the IC50 on Acetylcholinesterase [1] stood at 0.64 µM.

With `CO/N=C(\C(=O)N[C@@H]1C(=O)N2C(C(=O)[O-])=C(C[n+]3cccc4c3CCC4)CS[C@H]12)c1csc(N)n1` [CEFPIROME], in the series with Staphylococcus aureus [7], the ED50 – broadly, the midpoint of the dose-response relation – worked out at 1.5 mg/kg.

With `O=c1cc(CO)[nH]cc1O`, the Activity in series [3] stood at 22.

`O=c1cc(/C=C/c2nc3ccccc3o2)occ1O`: the inhibition (commonly the change of the read-out against control, counted positive when it falls) in [8] amounted to 65%. Moreover, in series [9], the Activity came to 4.29. The compound further showed an IC50 in series [10] of 7.05 µM.

Consider `Cc1c(O)c(=O)ccn1CCCC(=O)NCc1ccc(Cc2nc3ccccc3s2)cc1`, for which, in series [11], the Activity is 19.4.

On to `O=c1cc(/C=C/c2nc3ccc(O)cc3s2)occ1O`, for which the inhibition in series [8] is 78.3%. The Activity in [9] worked out at 6.03. Also, 5.06 µM corresponded to half-maximal inhibition in series [10] (IC50).

`CCCCn1ccc(=O)c(O)c1C(=O)NCCCC(CCCNC(=O)c1c(O)c(=O)ccn1CCCC)(CCCNC(=O)c1c(O)c(=O)ccn1CCCC)NC(=O)[C@@H](N)CC(C)C`: the MIC (usually the lowest concentration found to suppress growth) against Pseudomonas aeruginosa is 32 µg/mL (≈ 35.7 µM).

With `COCCn1ccc(=O)c(O)c1C(=O)NCCCC(CCCNC(=O)c1c(O)c(=O)ccn1CCOC)(CCCNC(=O)c1c(O)c(=O)ccn1CCOC)NC(=O)[C@@H](N)CC(C)C`, the lowest concentration to inhibit growth against Pseudomonas aeruginosa (MIC) was 128 µg/mL (≈ 142 µM).

As for `Cc1cc(=O)c(O)c(CO)n1CCCn1cc(COc2ccc3ccc(=O)oc3c2)nn1`, the Activity in series [12] is 19.8.

For `COCCOCCOCC(=O)NC(CCC(=O)NCc1c(O)c(=O)cc(C)n1C)(CCC(=O)NCc1c(O)c(=O)cc(C)n1C)CCC(=O)NCc1c(O)c(=O)cc(C)n1C`, the values for the MIC against Providencia stuartii and with Staphylococcus aureus [13] were 320 µg/mL (≈ 373 µM) and 240 µg/mL (≈ 280 µM), respectively.

As to `O=C(NCCN(CCNC(=O)c1[nH]ccc(=O)c1O)CCNC(=O)c1[nH]ccc(=O)c1O)c1[nH]ccc(=O)c1O`, the log Ks in series [14] came out at 30.7. Further, in series [3], the Activity came out at 30.5.

For `COc1cccc2cc(C(=O)NCCn3ccc(=O)c(OCc4ccccc4)c3C)oc12`, the IC50 on Acetylcholinesterase [15] is 76 µM. Also, the EC50 (commonly the concentration that produces a half-maximal response) in series [16] is greater than 1000 µM. Further, in series [17], the inhibition came to 36.1%.

In the case of `CCC(O)c1c(O)c(=O)cc(C)n1C` (stereo not drawn), the Activity in series [18] is 21. The Efficacy with Rattus norvegicus [19] amounted to 60.4%.

For the compound `CC(=O)N(C)O`, the Activity in series [3] stood at 13.

`CCCC(=O)NC(CCCNC(=O)c1c(O)c(=O)ccn1CCOC)(CCCNC(=O)c1c(O)c(=O)ccn1CCOC)CCCNC(=O)c1c(O)c(=O)ccn1CCOC`: the MIC in the series with Pseudomonas aeruginosa stood at 32 µg/mL (≈ 37.3 µM).

`Cc1c(O)c(=O)ccn1CC(=O)NCCNc1c2c(nc3cc(Cl)ccc13)CCCC2`: the IC50 at Acetylcholinesterase [1] is 0.64 µM.

For `CC(=O)NCCCCCCn1ccc(=O)c(O)c1C`, the Activity in series [20] was found to be 20.3. The logP at 1 h in series [4] turned out to be 0.53.

Turning to `CCc1c(OCc2ccccc2)c(=O)ccn1CCCCCCNc1ccnc2cc(Cl)ccc12`, the IC50 in the series on Plasmodium falciparum [21] is 0.041 µM; in the series on Plasmodium falciparum [22], 0.122 µM; in the series on Plasmodium falciparum [23], 0.076 µM; with Plasmodium falciparum [24], 0.089 µM.

Values taken from ChEMBL document CHEMBL4706610, “Hydroxypyridinone-Based Iron Chelators with Broad-Ranging Biological Activities” (J Med Chem, 2020).
